According to PubChem BioAssay AID1963961 (Molecular Pharmacology Branch, DTP, NCI, 2024):

System: K98450-129-R-PDC multicell spheroids, viability
Test: Anticancer human tumor K98450-129-R-PDC patient-derived colon adenocarcinoma cell line growth inhibition [PI3K]
Conditions: for viability, T/C: stronger effect = lower value
How it was run: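 Three cell types, namely tumor cells, endothelial cells and mesenchymal stem cells, formed each spheroid. Combinations with four PI3K inhibitors were screened at clinically achievable concentrations decreasing by half-log, and spheroid viability was recorded.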

[1] = curve of first compound, second compound 0.00316 µM
[2] = curve of first compound, second compound 0.01 µM
[3] = curve of first compound, second compound 0.0316 µM
[4] = curve of first compound, second compound 0.1 µM
[5] = curve of first compound, second compound 0.316 µM
[6] = curve of first compound, second compound 1 µM
[7] = second compound 0.00316 µM, first compound 0.0316 µM
[8] = second compound 0.00316 µM, first compound 0.1 µM
[9] = second compound 0.00316 µM, first compound 0.316 µM
[10] = second compound 0.00316 µM, first compound 1 µM
[11] = second compound 0.00316 µM, first compound 3.16 µM
[12] = second compound 0.00316 µM, first compound 10 µM
[13] = second compound 0.01 µM, first compound 0.0316 µM
[14] = second compound 0.01 µM, first compound 0.1 µM
[15] = second compound 0.01 µM, first compound 0.316 µM
[16] = second compound 0.01 µM, first compound 1 µM
[17] = second compound 0.01 µM, first compound 3.16 µM
[18] = second compound 0.01 µM, first compound 10 µM
[19] = second compound 0.0316 µM, first compound 0.0316 µM
[20] = second compound 0.0316 µM, first compound 0.1 µM
[21] = second compound 0.0316 µM, first compound 0.316 µM
[22] = second compound 0.0316 µM, first compound 1 µM
[23] = second compound 0.0316 µM, first compound 3.16 µM
[24] = second compound 0.0316 µM, first compound 10 µM
[25] = second compound 0.1 µM, first compound 0.0316 µM
[26] = second compound 0.1 µM, first compound 0.1 µM
[27] = second compound 0.1 µM, first compound 0.316 µM
[28] = second compound 0.1 µM, first compound 1 µM
[29] = second compound 0.1 µM, first compound 3.16 µM
[30] = second compound 0.1 µM, first compound 10 µM
[31] = second compound 0.316 µM, first compound 0.0316 µM
[32] = second compound 0.316 µM, first compound 0.1 µM
[33] = second compound 0.316 µM, first compound 0.316 µM
[34] = second compound 0.316 µM, first compound 1 µM
[35] = second compound 0.316 µM, first compound 3.16 µM
[36] = second compound 0.316 µM, first compound 10 µM
[37] = second compound 1 µM, first compound 0.0316 µM
[38] = second compound 1 µM, first compound 0.1 µM
[39] = second compound 1 µM, first compound 0.316 µM
[40] = second compound 1 µM, first compound 1 µM
[41] = second compound 1 µM, first compound 3.16 µM
[42] = second compound 1 µM, first compound 10 µM
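Note: spheroids exposed to agents for seven days before read-out.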

**Q.** Which IC50 [1] does the source give for C[C@@H](NC(=O)c1ncnc(N)c1Cl)c1ncc(C(=O)Nc2cc(C(F)(F)F)c(Cl)cn2)s1 + CC(Nc1ccc2c(c1)OCCn1cc(N3C(=O)OCC3C(F)F)nc1-2)C(N)=O here?
**A.** > 10 µM

**Q.** And the IC50 [2]?
**A.** > 10 µM

**Q.** And the IC50 [3]?
**A.** > 10 µM

**Q.** And the IC50 [4]?
**A.** > 10 µM

**Q.** And the IC50 [5]?
**A.** > 10 µM

**Q.** And the IC50 [6]?
**A.** > 10 µM

**Q.** What about the viability, T/C [7] of the same compound?
**A.** 111%

**Q.** And the viability, T/C [8]?
**A.** 109%

**Q.** And the viability, T/C [9]?
**A.** 118%

**Q.** What about the viability, T/C [10] of the same compound?
**A.** 114%

**Q.** And the viability, T/C [11]?
**A.** 118%

**Q.** And the viability, T/C [12]?
**A.** 111%

**Q.** And the viability, T/C [13]?
**A.** 115%

**Q.** And the viability, T/C [14]?
**A.** 108%

**Q.** What about the viability, T/C [15] of the same compound?
**A.** 116%

**Q.** And the viability, T/C [16]?
**A.** 115%

**Q.** And the viability, T/C [17]?
**A.** 118%

**Q.** And the viability, T/C [18]?
**A.** 116%

**Q.** What about the viability, T/C [19] of the same compound?
**A.** 105%

**Q.** And the viability, T/C [20]?
**A.** 102%

**Q.** And the viability, T/C [21]?
**A.** 108%

**Q.** What about the viability, T/C [22] of the same compound?
**A.** 121%

**Q.** What about the viability, T/C [23] of the same compound?
**A.** 122%

**Q.** And the viability, T/C [24]?
**A.** 104%

**Q.** What about the viability, T/C [25] of the same compound?
**A.** 96.7%

**Q.** What about the viability, T/C [26] of the same compound?
**A.** 105%

**Q.** And the viability, T/C [27]?
**A.** 107%

**Q.** What about the viability, T/C [28] of the same compound?
**A.** 110%

**Q.** What about the viability, T/C [29] of the same compound?
**A.** 125%

**Q.** What about the viability, T/C [30] of the same compound?
**A.** 107%

**Q.** What about the viability, T/C [31] of the same compound?
**A.** 97%

**Q.** And the viability, T/C [32]?
**A.** 109%

**Q.** What about the viability, T/C [33] of the same compound?
**A.** 113%

**Q.** And the viability, T/C [34]?
**A.** 111%

**Q.** And the viability, T/C [35]?
**A.** 120%

**Q.** What about the viability, T/C [36] of the same compound?
**A.** 101%

**Q.** What about the viability, T/C [37] of the same compound?
**A.** 86%

**Q.** What about the viability, T/C [38] of the same compound?
**A.** 94.4%

**Q.** What about the viability, T/C [39] of the same compound?
**A.** 102%

**Q.** What about the viability, T/C [40] of the same compound?
**A.** 104%

**Q.** What about the viability, T/C [41] of the same compound?
**A.** 115%

**Q.** And the viability, T/C [42]?
**A.** 90.7%

**Q.** What does the source list for Cc1nc(NC(=O)N2CCCC2C(N)=O)sc1-c1ccnc(C(C)(C)C(F)(F)F)c1 (stereo unspecified)?
**A.** viability, T/C (compound 0.0316 µM): 104% [middle of 8 runs]; viability, T/C (compound 0.1 µM): 103% [middle of 8 runs]; viability, T/C (compound 0.316 µM): 102% [middle of 8 runs]; viability, T/C (compound 1 µM): 99.1% [middle of 8 runs]; viability, T/C (compound 3.16 µM): 93.5% [middle of 8 runs]; viability, T/C (compound 10 µM): 75.9% [middle of 8 runs]; IC50 (compound alone, run of 04/24/2023): > 10 µM

**Q.** What does the source list for CC1(C)CCC(CN2CCN(c3ccc(C(=O)NS(=O)(=O)c4ccc(NCC5CCOCC5)c([N+](=O)[O-])c4)c(Oc4cnc5[nH]ccc5c4)c3)CC2)=C(c2ccc(Cl)cc2)C1 + COc1c(OCCCN2CCOCC2)ccc2c3n(c(=NC(=O)c4cnc(N)nc4)nc12)CCN3?
**A.** IC50 [1]: > 10 µM; IC50 [2]: > 10 µM; IC50 [3]: > 10 µM; IC50 [4]: > 10 µM; IC50 [5]: > 10 µM; IC50 [6]: > 10 µM; viability, T/C [7]: 94.9%; viability, T/C [8]: 112%; viability, T/C [9]: 107%; viability, T/C [10]: 96.1%; viability, T/C [11]: 93.7%; viability, T/C [12]: 97.1%; viability, T/C [13]: 125%; viability, T/C [14]: 111%; viability, T/C [15]: 119%; viability, T/C [16]: 104%; viability, T/C [17]: 95.7%; viability, T/C [18]: 86%; viability, T/C [19]: 101%; viability, T/C [20]: 96.3%; viability, T/C [21]: 104%; viability, T/C [22]: 99.6%; viability, T/C [23]: 96.8%; viability, T/C [24]: 85.1%; viability, T/C [25]: 72.8%; viability, T/C [26]: 76.8%; viability, T/C [27]: 91.2%; viability, T/C [28]: 90.5%; viability, T/C [29]: 80.4%; viability, T/C [30]: 72.7%; viability, T/C [31]: 60%; viability, T/C [32]: 48%; viability, T/C [33]: 75.6%; viability, T/C [34]: 60.6%; viability, T/C [35]: 53.5%; viability, T/C [36]: 55.2%; viability, T/C [37]: 49.1%; viability, T/C [38]: 49.6%; viability, T/C [39]: 59.6%; viability, T/C [40]: 54.6%; viability, T/C [41]: 41.4%; viability, T/C [42]: 54.2%
